“Also recorded” adds a separate entry of the source.

One experiment concerns 3T3-L1 cells. Put plainly: Real-time PCR of mitochondrial and lipid burning genes in 3T3-L1 cells. In kind it is cell-based, mouse. As to the method:
Whether bilirubin decreases adiposity by enhancing mitochondrial function was evaluated. It was previously shown that bilirubin reduces lipid accumulation in adipocytes. However, it remained to be determined if this occurs by activation of PPARα to reduce adiposity, selective actions on PPARγ, or is a dual PPAR agonist, which together may mediate its glucose- and lipid-lowering effects. First, to determine if bilirubin enhances genes for mitochondrial function, 3T3-L1 cells, a WAT-type murine pre-adipocyte cell line that differentiates to full adipocytes, were treated with increasing concentrations of biliverdin, which is more soluble and is rapidly produced to bilirubin, over the 9-day adipocytic differentiation protocol.
(§1) Total RNA was extracted from mouse tissues using the miRNeasy Mini Kit (Qiagen). Total RNA was read on a NanoDrop 2000 spectrophotometer (Thermo Fisher Scientific, Wilmington, DE) and cDNA was synthesized using High Capacity cDNA Reverse Transcription Kit (Applied Biosystems). PCR amplification of the cDNA was performed by quantitative real-time PCR using TrueAmp SYBR Green qPCR SuperMix (Advance Bioscience). The thermocycling protocol consisted of 3 min at 95° C., 48 cycles of 15 sec at 95° C., 30 sec at 60° C., and based on primer size 0 to 30 sec at 72° C. and finished with a melting curve ranging from 60-95° C. to allow distinction of specific products. Normalization was performed in separate reactions with primers to 36B4.
On the technique in general: Real-time PCR tracks product formation cycle by cycle.

Another experiment concerns the target T1, PPARα (Mus musculus, UniProt P23204).
T1 sequence (P23204 1-468): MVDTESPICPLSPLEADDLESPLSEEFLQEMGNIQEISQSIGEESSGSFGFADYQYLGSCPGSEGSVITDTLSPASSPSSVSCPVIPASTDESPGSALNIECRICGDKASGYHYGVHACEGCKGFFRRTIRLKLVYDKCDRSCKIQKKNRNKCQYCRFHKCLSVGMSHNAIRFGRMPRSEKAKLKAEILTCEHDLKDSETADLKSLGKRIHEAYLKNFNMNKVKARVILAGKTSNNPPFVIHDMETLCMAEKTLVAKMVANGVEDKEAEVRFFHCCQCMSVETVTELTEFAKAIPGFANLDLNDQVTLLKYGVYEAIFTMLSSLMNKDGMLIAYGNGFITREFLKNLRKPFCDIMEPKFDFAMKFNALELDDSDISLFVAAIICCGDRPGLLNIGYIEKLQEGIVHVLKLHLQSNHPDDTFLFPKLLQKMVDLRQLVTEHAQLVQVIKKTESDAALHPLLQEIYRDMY
As to the method:
Cells were crosslinked with formaldehyde with a final concentration of 1% in media while shaking at room temperature for 10 min. The activity of the formaldehyde was quench with the addition of glycine while rocking for 5 min at room temperature. Cells were washed twice with 1×PBS, collected into a 15 ml conical tube and spun down at 3,000 rpm for 5 min. Pellets were rapidly frozen on dry ice ethanol mix and stored at −80° C. for a minimum of 1 hour or immediately resuspended in a series of lysis buffers (see table for ChIP buffer table) containing protease inhibitors for 5 min. Cells were sonicated for approximately 8 min per sample. The lysates were centrifuged for 10 min at 4° C. at 13,000 rpm. The lysates were pre-cleared in BSA/Salmon sperm blocked beads rotating for 2 hours at 4° C. […] Lysates were then incubated with Agarose A beads and rotated for 4 hours at 4° C. The samples were then washed with a ChIP washing buffer (see table for ChIP buffer table) 5 times. The protein was eluted in an Elution buffer at 65° C. for 30 min shaking every 2 min. The eluted samples were transferred to another tube and incubated at 65° C. overnight to reverse crosslinking. The samples were purified after 1-hour incubation with Proteinase K at 55° C. with a isopropanol/chloroform/ethanol mixture. DNA was quantified on a NanoDrop 2000 spectrophotometer (Thermo Fisher Scientific, Wilmington, DE). PCR amplification of the genomic DNA was performed by quantitative real-time PCR using TrueAmp SYBR Green qPCR SuperMix (Advance Bioscience). The thermocycling protocol consisted of 2 min at 50° C. and then 10 min at 95° C., 48 cycles of 30 sec at 95° C., 1 min at 65° C.

A further experiment relates to 3T3-PPARα cells. The experiment can be described thus: SeaHorse mitochondrial respiration in 3T3-PPARα cells. The experiment is classed as cell-based, mouse. The conditions noted are these: 3T3-L1 cells overexpressing PPARα. An excerpt: (§2) To investigate the specific role of bilirubin on PPARα or PPARγ as well as mitochondrial function and gene regulation, 3T3-LI cells that overexpressed each receptor (3T3-PPARα or 3T3-PPARγ2) were generated via lentivirus (FIGS. 2A-2B). […] The 3T3-Vector cells had no responses to biliverdin in FIGS. 2A-2B.
(§3) Cellular respiration was quantified using the Seahorse Extracellular Flux Analyzer XF-96 (Agilent Technologies, Cedar Creek, TX). The Seahorse XF Cell Mito Stress Test Kit (Agilent Technologies, Cat #103015-100) was used for analysis of cellular respiration. BAT or 3T3-L1 cells were seeded on a XF96 cell culture microplate (Agilent 101085-004) at 20,000 cells per well. Cells were then differentiated as previously described for 9 days. […] The oxygen consumption rate (OCR) and extracellular acidification rate (ECAR) were used to quantify the cellular energy phenotype of the cells. After treatment, cells were washed twice with Seahorse Bioscience Assay Media (XF Base media with 25 mM Glucose, 2 mM […], and 1 mM Sodium Pyruvate) then incubated with the buffer for 1 hour in a non-CO2 incubator. The Seahorse Cartridge ports were loaded with […] of assay media with […] FCCP, 10 μM Oligomycin, 5 μM Rotenone/Antimycin A in different ports an hour before assay. […] The raw data and graphs were supplied as an Excel File or Graphpad Prizm file.

A further experiment deals with 3T3-Vector cells. Put plainly: SeaHorse mitochondrial respiration in 3T3-Vector cells. The note with it: lentiviral empty vector control cells. In kind it is cell-based, mouse.
Source text: as §2, §3

Experiment [1] concerns BAT cells. Put plainly: SeaHorse analysis in murine BAT cell line (wild-type). The experiment is classed as cell-based.
The test system of experiment [2] is BAT cells. Put plainly: Real-time PCR in differentiated BAT cells. In kind it is cell-based, murine. The note with it: 50 μM biliverdin, 50 μM WY14,463, 10 μM rosiglitazone, 24 hrs. The method, then:
as §1

With `C=CC1=C(C)/C(=C/C2=NC(=C\c3[nH]c(/C=C4\NC(=O)C(C)=C4C=C)c(C)c3CCC(=O)O)/C(CCC(=O)O)=C2C)NC1=O` [biliverdin], the “Ucp1 mRNA” value in the experiment with 3T3-L1 cells (1 μM) is given as “significantly heightened”. In addition, in the experiment with 3T3-L1 cells (50 μM), the “Cpt1 mRNA expression” value is “significantly increased” and the “Ucp1 mRNA expression” value was “significantly increased”. For the same molecule, on PPARα (50 μM, 24 hours), the “PPARα occupancy at the 13K enhancer of the Ucp1” value is on record as “significantly increased” and the “PPARα occupancy at the −3306 to −3109 region of the Cpt1 promoter” value is “significantly increased”. Further, on PPARα (BAT cells), the “occupancy of PPARα at 13K enhancer of the Ucp1” value was “increased”, the “occupancy of PPARα at the Cpt1 promoter” value is recorded as “increased” and the “occupancy of PPARα at the enhancer region of the Adrb3 promoter” value is reported as “intensified”. Also, in the experiment with 3T3-PPARα cells, the ATP production result was “significantly higher”, the basal respiration result was “significantly higher”, the maximum respiration result is reported as “significantly higher” and the proton leak entry is listed as “significantly higher”. Also, the “responses (mitochondrial respiration)” value in the experiment with 3T3-Vector cells is given as “no responses”. In the experiment on BAT cells [1] (BAT cells), the mitochondrial function entry is “increasing” and the proton leak entry is “stimulated”. Also, in the experiment on BAT cells [1] (WT BAT cells, 24 hours), the ATP production result is “increased; also recorded: stimulated”, the “basal respiration (OCR)” value is “increased” and the “maximum respiration (OCR)” value is reported as “increased; also recorded: significantly higher”. Further, in the experiment with BAT cells [2], the “Adrb3 mRNA” value is “significant increase; also recorded: only significantly higher” and the “Ucp1 mRNA” value is reported as “significant increase”.

The record behind these values is patent US20250281460A1, “PEGYLATED BILIRUBIN FOR THE TREATMENT OF […], OBESITY, FATTY LIVER DISEASE, CARDIOVASCULAR DISEASES AND TYPE II DIABETES” (The University of Toledo, priority 2019, published 2025).
